Values belong to the compound of their own block, whether it stands above or below them.
Tests used:
human GLP-1R [1] = target: T1, human GLP-1R (Homo sapiens, UniProt P43220); assay: cAMP assay (CAMYEL BRET sensor), GLP-1R; type: cell-based; conditions: CAMYEL sensor, no IBMX, mean ± SEM, at least 3 experiments, SEM
T1 construct: host or cells: HEK293T
Experimental: (§1) The cells were seeded (700,000 cells/well) in 6-well plates and incubated to ∼70% confluency in complete media supplemented with 10% FBS and 1% Pen-Strep. […] Baseline measurements were taken after 5 min of incubation with coelenterazine-h or NanoGlo. The cells were then treated with a vehicle or the respective agonists. […] The temporal data of the vehicle-corrected agonist measurement was then normalized to the baseline reading of the same well. The first BRET reading following treatment with agonist/vehicle was the subsequent measurement after the zero time point. Positive or negative incremental areas under the curves (+iAUC/-iAUC) were calculated where noted. Each experiment was independently performed at least three times, with at least two technical replicates for each group.
(§2) CAMYEL, a cAMP sensor using YFP-Epac-RLuc was utilized to quantify cAMP accumulation with the temporal resolution. Then, 500 ng of CAMYEL DNA was co-transfected with 500 ng of DNA of untagged GLP-1R or GIPR per well in a 6-well plate. The experiments were performed in the absence of 3-isobutyl-1-methylxanthine (IBMX).
(§3) Data are represented as means ± S.E.M. Each experiment was independently conducted at least three times, each with at least two technical replicates. […] Dose responses were fitted using non-linear regression. pEC50 and EC50 values were calculated using GraphPad Prism 8.0 (GraphPad, San Diego, CA, USA). Statistical analyses were calculated in GraphPad 8.0 using one-way analysis of variance (ANOVA) and corrected with Tukey's or Bonferroni's multiple comparison test. Differences are considered significant with an adjusted p value < 0.05.

human GLP-1R [2] = target: T1, human GLP-1R; assay: Gαq (mini-G) recruitment BRET assay, GLP-1R; type: cell-based; conditions: HEK293T, GLP-1R-GFP + NLuc-mini-G, +iAUC 60 min
human GLP-1R [3] = target: T1, human GLP-1R; assay: GPCR internalization assay (loss of BRET with Venus-KRAS), GLP-1R; type: cell-based; conditions: HEK293T, hGLP-1R-Rluc8 + Venus-KRAS, iAUC 60 min
human GLP-1R [4] = target: T1, human GLP-1R; assay: β-arrestin 1 recruitment BRET assay, GLP-1R; type: cell-based; conditions: HEK293T, GLP-1R-GFP + β-arrestin1-RLUC8, BRET, +iAUC 30 min
Experimental: as §1
(§4) Co-localization of β-arrestin1/2-RLUC8 with GLP-1R-GFP or GIPR-GFP was assessed.
as §3, with “Differences are considered significant with an adjusted p value < 0.05.” left out

human GLP-1R [5] = target: T1, human GLP-1R; assay: β-arrestin 2 recruitment BRET assay, GLP-1R; type: cell-based; conditions: HEK293T, GLP-1R-GFP + β-arrestin2-RLUC8, BRET, +iAUC 30 min
Experimental: as §1, §4
as §3, with “Differences are considered significant with an adjusted p value < 0.05.” left out

human GLP-1R [6] = target: T1, human GLP-1R; assay: Gαs (mini-G) recruitment BRET assay, GLP-1R; type: cell-based; conditions: HEK293T, GLP-1R-GFP + NLuc-mini-G, +iAUC 60 min
human GIPR [7] = target: T2, human GIPR (Homo sapiens, UniProt P48546); assay: cAMP assay (CAMYEL BRET sensor), GIPR; type: cell-based; conditions: HEK293T, GIPR, CAMYEL sensor, no IBMX, +iAUC 25 min
T2 sequence (P48546 22-466): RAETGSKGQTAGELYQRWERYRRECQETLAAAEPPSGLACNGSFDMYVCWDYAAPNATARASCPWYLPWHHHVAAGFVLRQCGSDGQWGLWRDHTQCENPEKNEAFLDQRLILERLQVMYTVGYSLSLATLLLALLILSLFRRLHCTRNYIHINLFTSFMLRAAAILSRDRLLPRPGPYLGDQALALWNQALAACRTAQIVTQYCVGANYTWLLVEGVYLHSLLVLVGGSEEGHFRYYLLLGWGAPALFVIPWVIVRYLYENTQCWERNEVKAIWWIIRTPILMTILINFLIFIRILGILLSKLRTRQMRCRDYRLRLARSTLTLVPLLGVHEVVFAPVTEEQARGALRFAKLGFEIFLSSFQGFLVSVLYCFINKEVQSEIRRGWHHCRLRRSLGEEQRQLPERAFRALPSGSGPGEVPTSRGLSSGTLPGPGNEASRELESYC
Experimental: as §1, §2, §3

human GIPR [8] = target: T2, human GIPR; assay: Gαq (mini-G) recruitment BRET assay, GIPR; type: cell-based; conditions: HEK293T, GIPR-GFP + NLuc-mini-G, +iAUC 60 min
human GIPR [9] = target: T2, human GIPR; assay: GPCR internalization assay (loss of BRET with Venus-KRAS), GIPR; type: cell-based; conditions: HEK293T, hGIPR-Rluc8 + Venus-KRAS, iAUC 20 min
human GIPR [10] = target: T2, human GIPR; assay: β-arrestin 1 recruitment BRET assay, GIPR; type: cell-based; conditions: HEK293T, GIPR-GFP + β-arrestin1-RLUC8, BRET, +iAUC 30 min
Experimental: as §1, §4, §3

human GIPR [11] = target: T2, human GIPR; assay: β-arrestin 2 recruitment BRET assay, GIPR; type: cell-based; conditions: HEK293T, GIPR-GFP + β-arrestin2-RLUC8, BRET, +iAUC 30 min
Experimental: as §1, §4, §3

human GIPR [12] = target: T2, human GIPR; assay: Gαs (mini-G) recruitment BRET assay, GIPR; type: cell-based; conditions: HEK293T, GIPR-GFP + NLuc-mini-G, +iAUC 60 min
Human GLP-1R-GFP (human) [13] = target: Human GLP-1R-GFP (human) (UniProt P43220)
[14] = target: Human GIPR-turbo GFP (human) (UniProt P48546)
Human GLP-1R-GFP (human) [15] = target: Human GLP-1R-GFP (human) (UniProt P43220); remark: listed apart in the source
[16] = target: Human GIPR-turbo GFP (human) (UniProt P48546); remark: listed apart in the source
[17] = HEK-293T, mean ± SEM, at least 3 experiments, SEM
[18] = read-out: Receptor Internalization EC50
[19] = read-out: β-arr1 Recruitment EC50
[20] = read-out: β-arr2 Recruitment EC50

Sequence of Human GLP-1R-GFP (human) (P43220 24-463): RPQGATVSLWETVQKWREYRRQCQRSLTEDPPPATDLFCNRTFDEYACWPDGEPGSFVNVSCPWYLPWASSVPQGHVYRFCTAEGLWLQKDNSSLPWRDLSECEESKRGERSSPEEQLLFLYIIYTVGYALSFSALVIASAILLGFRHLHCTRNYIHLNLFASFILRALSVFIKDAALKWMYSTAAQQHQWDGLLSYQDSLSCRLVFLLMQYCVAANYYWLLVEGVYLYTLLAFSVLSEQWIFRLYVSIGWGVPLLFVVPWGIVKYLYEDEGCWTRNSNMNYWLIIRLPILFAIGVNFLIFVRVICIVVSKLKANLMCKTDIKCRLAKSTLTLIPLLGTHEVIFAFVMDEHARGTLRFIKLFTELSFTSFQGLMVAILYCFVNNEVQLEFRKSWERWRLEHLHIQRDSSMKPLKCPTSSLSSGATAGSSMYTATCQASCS
T1 sequence (P43220 24-463): as above

Compound: CCCCCCCCCCCCCCCC(=O)NCCCC[C@H](NC(=O)[C@H](CO)NC(=O)[C@@H]1CCCN1C(=O)[C@@H]1CCCN1C(=O)[C@@H]1CCCN1C(=O)[C@H](C)NC(=O)CNC(=O)[C@H](CO)NC(=O)[C@H](CO)NC(=O)[C@@H]1CCCN1C(=O)CNC(=O)CNC(=O)[C@H](C)NC(=O)[C@H](CC(C)C)NC(=O)[C@H](CC(C)C)NC(=O)[C@H](Cc1c[nH]c2ccccc12)NC(=O)[C@H](CC(N)=O)NC(=O)[C@@H](NC(=O)[C@H](Cc1ccccc1)NC(=O)[C@H](CCC(=O)O)NC(=O)C(C)(C)NC(=O)[C@H](C)NC(=O)[C@H](C)NC(=O)[C@H](CCC(N)=O)NC(=O)[C@H](CCCCN)NC(=O)[C@H](CC(=O)O)NC(=O)[C@H](CC(C)C)NC(=O)[C@H](Cc1ccc(O)cc1)NC(=O)[C@@H](NC(=O)[C@H](CO)NC(=O)[C@@H](NC(=O)[C@H](CC(=O)O)NC(=O)[C@H](CO)NC(=O)[C@@H](NC(=O)[C@H](Cc1ccccc1)NC(=O)[C@@H](NC(=O)CNC(=O)[C@H](CCC(=O)O)NC(=O)C(C)(C)NC(=O)[C@@H](N)Cc1c[nH]cn1)[C@@H](C)O)[C@@H](C)O)C(C)C)[C@@H](C)CC)C(C)C)C(N)=O [fatty acyl-GLP-1]
- EC50 (human GLP-1R [1]; HEK293T, GLP-1R, +iAUC 25 min, read-out: cAMP pEC50 (converted)): 0.363 nM
- Emax (human GLP-1R [1]; HEK-293T, HEK293T transiently expressing untagged GLP-1R, +iAUC of 25 min response, 3-parameter fit): 99 ± 3%
- EC50 (human GLP-1R [2]): 305 nM
- Emax (human GLP-1R [2]; [17]): 101 ± 5%
- EC50 (human GLP-1R [3]; [18]): 490 nM
- Emax (human GLP-1R [3]; HEK-293T, mean ± SEM, at least 3 experiments, SEM, read-out: Receptor Internalization Emax (% GLP-1)): 108 ± 4%
- EC50 (human GLP-1R [4]; [19]): 358 nM
- Emax (human GLP-1R [4]; HEK-293T, mean ± SEM, at least 3 experiments, SEM, read-out: β-arr1 Recruitment Emax (% GLP-1)): 88 ± 4%
- EC50 (human GLP-1R [5]; [20]): 188 nM
- Emax (human GLP-1R [5]; HEK-293T, mean ± SEM, at least 3 experiments, SEM, read-out: β-arr2 Recruitment Emax (% GLP-1)): 86 ± 3%
- EC50 (human GLP-1R [6]): 423 nM
- Emax (human GLP-1R [6]; [17]): 98 ± 5%
- EC50 (human GIPR [7]; mean ± SEM, read-out: cAMP pEC50 (converted)): > 1000 nM
- EC50 (human GIPR [7]; read-out: cAMP EC50): > 1000 nM
- EC50 (human GIPR [8]; mean ± SEM, read-out: Gαq Recruitment pEC50 (converted)): > 1000 nM
- EC50 (human GIPR [8]; read-out: Gαq Recruitment EC50): > 1000 nM
- EC50 (human GIPR [9]; mean ± SEM, read-out: Receptor Internalization pEC50 (converted)): > 1000 nM
- EC50 (human GIPR [9]; [18]): > 1000 nM
- EC50 (human GIPR [10]; [19]): > 1000 nM
- EC50 (human GIPR [10]; read-out: β-arr1 Recruitment pEC50 (converted)): > 1000 nM
- EC50 (human GIPR [11]; mean ± SEM, read-out: β-arr2 Recruitment pEC50 (converted)): > 1000 nM
- EC50 (human GIPR [11]; [20]): > 1000 nM
- EC50 (human GIPR [12]; mean ± SEM, read-out: Gαs Recruitment pEC50 (converted)): > 1000 nM
- EC50 (human GIPR [12]; read-out: Gαs Recruitment EC50): > 1000 nM

- GLP-1R internalization Emax, % of GLP-1 (7–36 amide) (loss of BRET between hGLP-1R-Rluc8 and Venus-KRAS, HEK293T) (Human GLP-1R-GFP (human) [13]): 51%
- GIPR internalization Emax, % of GIP (1–42) (loss of BRET between hGIPR-Rluc8 and Venus-KRAS, HEK293T) [14]: 4%
- GLP-1R co-localization with Rab5 early endosomes (BRET of hGLP-1R-Rluc8 with Venus-Rab5, HEK293T), 1 μM, % of GLP-1 (7–36 amide) (Human GLP-1R-GFP (human) [15]): 68%
- GLP-1R co-localization with Rab7 late endosomes (BRET of hGLP-1R-Rluc8 with Venus-Rab7, HEK293T), % of GLP-1 (7–36 amide) (Human GLP-1R-GFP (human) [15]): 62%
- GIPR co-localization with Rab5^+ endosomes (BRET of hGIPR-Rluc8 with Venus-Rab5, HEK293T), % of the response to GIP (1–42), fatty acyl-GIP and tirzepatide [16]: 66%
Compound: MAR709 (peptide)
